The source of these data is patent publication US11001570B2, “6-amino-quinolinone compounds and derivatives as BCL6 inhibitors” (Boehringer Ingelheim International GmbH, priority 2016, dated 2021).

The target in the experiment is T1, BCL6::BCOR (Homo sapiens, UniProt P41182, C67R/C84N/C8Q).
T1 construct: BCL6 (amino acids 5 to 129, with the following changes to the natural protein); made in house; host or cells: E. coli
Kind of experiment: BCL6::BCOR ULight TR-FRET assay. In kind it is binding. The text has this: Biological Methods BCL6::BCOR ULight TR-FRET Assay:
Biotinylated BCL6 protein corresponding to BCL6 (amino acids 5 to 129, with the following changes to the natural protein: C8Q, C67R, C84N) is expressed in E. coli with a carboxy-terminal Avi tag (amino acid sequence […]). The BCOR ULight peptide uses a direct carboxy-terminal ULight tag (PerkinElmer). The sequence of the peptide is CRSEIISTAPSSWVVPGP, with the amino terminus acetylated and the ULight tag attached to the cysteine. Compounds are dispensed onto assay plates (Proxiplate 384 PLUS, white, PerkinElmer) using an Access Labcyte Workstation with the Labcyte Echo 55×from a DMSO solution. For the chosen highest assay concentration of 100 μM, 150 nl of compound solution are transferred from a 10 mM DMSO compound stock solution. A series of 11 concentrations is transferred for each compound at which each concentration is fivefold lower than the previous one. DMSO is added such that every well has a total of 150 nl compound solution. 5 μL of 1 nM BCL6 protein in assay buffer (50 mM HEPES pH 7.3; 125 mM NaCl; 1 mM GSH; 0.01% Triton-X 100; 0.03% BSA) are added to the 150 nl of compounds. After 30 minutes incubation time at room temperature, 10 μL of a mix containing BCOR ULight peptide (100 nM final assay concentration) and Streptavidin-Europium (0.75 nM final assay concentration) are added. Plates are kept at room temperature. After 240 minutes incubation time the TR-FRET signal is measured in a PerkinElmer Envision HTS Multilabel Reader using the TR-FRET LANCE Ultra specs of PerkinElmer. Each plate contains negative controls (diluted DMSO instead of test compound; BCOR peptide and Streptavidin Europium mix with BCL6 protein) and positive controls (diluted DMSO instead of test compound; BCOR peptide and Streptavidin-Europium mix without BCL6 protein). Negative and positive control values are used for normalization.
(In general: In TR-FRET formats the signal depends on donor and acceptor labels being close together.)

What is called IC50 is the concentration needed to halve the response being measured. In turn, `CNC(=O)COc1cc2cc(Nc3nc(N4CCC[C@H](C)C4)ncc3Cl)ccc2n(C)c1=O` [Compound I-66] showed a half-inhibitory concentration (IC50) of 5 nM.

`CNC(=O)COc1cc2cc(Nc3nc(N4CCc5cn[nH]c5C4)ncc3Cl)ccc2n(C)c1=O` [Compound I-67] registered an IC50 of 5 nM.

Compound `CNC(=O)COc1cc2cc(Nc3nc(N4CCc5cnn(C)c5C4)ncc3Cl)ccc2n(C)c1=O` [Compound I-68] came in with an IC50 of 7 nM. The IC50 values of the last two compounds are within 1.5-fold of each other.

For the compound `CNC(=O)COc1cc2cc(Nc3nc(N4CCCC(C)(C#N)C4)ncc3Cl)ccc2n(C)c1=O` (stereo not drawn) [Compound I-69], inhibition was half-maximal at 23 nM (IC50).

`CNC(=O)COc1cc2cc(Nc3nc(N4CCC[C@@H](C)C4)ncc3Cl)ccc2n(C)c1=O` [Compound I-70] had an IC50 of 7 nM.

For the compound `CNC(=O)COc1cc2cc(Nc3nc(N4CCCC(C)(C)C4)ncc3Cl)ccc2n(C)c1=O` [Compound I-71], the IC50 was 9 nM. This IC50 and that of the compound before are within 1.5-fold of each other.

Compound `CNC(=O)COc1cc2cc(Nc3nc(N4CC5CCCC5C4)ncc3Cl)ccc2n(C)c1=O` (stereo not drawn) [Compound I-72] had an IC50 of 9 nM.

On to `CCn1c(=O)c(OCC(=O)NC)cc2cc(Nc3nc(N4CCC(C(=O)O)CC4)ncc3Cl)ccc21` [Compound I-73], for which half-maximal inhibition (IC50) required 4 nM.

With `CCn1c(=O)c(OCC(=O)NC)cc2cc(Nc3nc(N4C[C@H](C)C[C@H](C)C4)ncc3Cl)ccc21` [Compound I-74], the IC50 was determined as 5 nM.

`CCn1c(=O)c(OCC(=O)NC)cc2cc(Nc3nc(N4CCC(F)CC4)ncc3Cl)ccc21` [Compound I-75] registered an IC50 of 5 nM.

In the case of `CCn1c(=O)c(OCC(=O)NC)cc2cc(Nc3nc(N4CCC(F)(F)CC4)ncc3Cl)ccc21` [Compound I-76], half-maximal inhibition (IC50) required 5 nM.

With `CCn1c(=O)c(OCC(=O)NC)cc2cc(Nc3nc(N4CCC[C@@H](C)C4)ncc3Cl)ccc21` [Compound I-77], half-maximal inhibition (IC50) was put at 8 nM.

On to `CCCn1c(=O)c(OCC(=O)NC)cc2cc(Nc3nc(N4CCC(C(=O)O)CC4)ncc3Cl)ccc21` [Compound I-78], for which half-maximal inhibition (IC50) was put at 4 nM. This IC50 is about 2-fold lower than that of the compound before.

In turn, `CCCn1c(=O)c(OCC(=O)NC)cc2cc(Nc3nc(N4C[C@H](C)C[C@H](C)C4)ncc3Cl)ccc21` [Compound I-79] had an IC50 of 11 nM. Against the preceding compound, the IC50 is about 2.8-fold higher.

For the compound `CCCn1c(=O)c(OCC(=O)NC)cc2cc(Nc3nc(N4CCC(F)CC4)ncc3Cl)ccc21` [Compound I-80], the IC50 is 7 nM.

Take `CCCn1c(=O)c(OCC(=O)NC)cc2cc(Nc3nc(N4CCC(F)(F)CC4)ncc3Cl)ccc21` [Compound I-81]: the IC50 worked out at 7 nM.

Take `CNC(=O)COc1cc2cc(Nc3nc(N4CCC(C(=O)O)CC4)ncc3Cl)ccc2n(C(C)C)c1=O` [Compound I-82]: half-maximal inhibition (IC50) was put at 4 nM.

`CNC(=O)COc1cc2cc(Nc3nc(N4C[C@H](C)C[C@H](C)C4)ncc3Cl)ccc2n(C(C)C)c1=O` [Compound I-83] had an IC50 of 12 nM.

`CNC(=O)COc1cc2cc(Nc3nc(N4CCC(F)CC4)ncc3Cl)ccc2n(C(C)C)c1=O` [Compound I-84] showed an IC50 of 10 nM.

On to `CNC(=O)COc1cc2cc(Nc3nc(N4CCC(F)(F)CC4)ncc3Cl)ccc2n(C(C)C)c1=O` [Compound I-85], for which the IC50 turned out to be 9 nM.

Consider `CNC(=O)COc1cc2cc(Nc3nc(N4CCC(C(=O)O)CC4)ncc3Cl)ccc2n(CC2CC2)c1=O` [Compound I-86], for which inhibition was half-maximal at 3 nM (IC50). This IC50 is about 3-fold lower than that of the compound before.

`CNC(=O)COc1cc2cc(Nc3nc(N4C[C@H](C)C[C@H](C)C4)ncc3Cl)ccc2n(CC2CC2)c1=O` [Compound I-87] gave an IC50 of 15 nM. This IC50 lies about 5-fold higher than the previous one.

Compound `CNC(=O)COc1cc2cc(Nc3nc(N4CCC(F)CC4)ncc3Cl)ccc2n(CC2CC2)c1=O` [Compound I-88] had an IC50 of 6 nM.

Consider `CNC(=O)COc1cc2cc(Nc3nc(N4CCC(F)(F)CC4)ncc3Cl)ccc2n(CC2CC2)c1=O` [Compound I-89], for which the IC50 came out at 8 nM.

With `CNC(=O)COc1cc2cc(Nc3nc(N4CCC(C(=O)N5CCN(C)CC5)CC4)ncc3Cl)ccc2n(C)c1=O` [Compound I-90], half-maximal inhibition (IC50) was put at 7 nM. The IC50 values of the last two compounds are within 1.5-fold of each other.

Compound `CNC(=O)COc1cc2cc(Nc3nc(N4CCN(CCC(=O)O)CC4)ncc3Cl)ccc2n(C)c1=O` [Compound I-91] came in with an IC50 of 7 nM. In other words, the single-digit nanomolar range.

As for `CNC(=O)COc1cc2cc(Nc3nc(N4CCN(CCC(=O)O)C(=O)C4)ncc3Cl)ccc2n(C)c1=O` [Compound I-92], the IC50 came out at 5 nM.

Compound `CNC(=O)COc1cc2cc(Nc3nc(N4CCC(CC(=O)O)CC4)ncc3Cl)ccc2n(C)c1=O` [Compound I-93] showed an IC50 of 4 nM.

For the compound `CNC(=O)COc1cc2cc(Nc3nc(N4CCC(C(=O)O)CC4)ncc3Cl)cc(OC)c2n(C)c1=O` [Compound I-94], the IC50 amounted to 2 nM.

Turning to `CNC(=O)COc1cc2cc(Nc3nc(N4CCC[C@@H](C(=O)O)C4)ncc3Cl)cc(OC)c2n(C)c1=O` [Compound I-95], the IC50 is 2 nM.

In turn, `CNC(=O)COc1cc2cc(Nc3nc(N4CCC[C@H](C(=O)O)C4)ncc3Cl)cc(OC)c2n(C)c1=O` [Compound I-96] registered an IC50 of 2 nM.

For `CNC(=O)COc1cc2cc(Nc3nc(N4CCC(F)(F)CC4)ncc3Cl)cc(OC)c2n(C)c1=O` [Compound I-97], the IC50 is 4 nM. Against the preceding compound, the IC50 is about 2-fold higher.

Compound `CNC(=O)COc1cc2cc(Nc3nc(N4CCC(F)CC4)ncc3Cl)cc(OC)c2n(C)c1=O` [Compound I-98] had an IC50 of 4 nM.

Turning to `CNC(=O)COc1cc2cc(Nc3nc(N4C[C@H](C)C[C@H](C)C4)ncc3Cl)cc(OC)c2n(C)c1=O` [Compound I-99], the midpoint of inhibition, the IC50, lay at 7 nM.

Take `C[C@@H]1C[C@H](C)CN(c2ncc(F)c(Nc3ccc4c(c3)cc(OCC(=O)O)c(=O)n4C)n2)C1` [Compound I-100]: the concentration for half-maximal inhibition (IC50) came out at 12 nM.

In turn, `Cn1c(=O)c(OCC(=O)O)cc2cc(Nc3nc(N4CCC(Nc5ncccn5)CC4)ncc3Cl)ccc21` [Compound I-101] displayed an IC50 of 10 nM. The IC50 values of the last two compounds are within 1.5-fold of each other.

The compound `Cn1c(=O)c(OCC(=O)O)cc2cc(Nc3nc(N4CCC(C(=O)O)CC4)ncc3Cl)ccc21` [Compound I-102] gave an IC50 of 7 nM.

Take `Cn1c(=O)c(OCC(=O)O)cc2cc(Nc3nc(N4CCC5(CC4)OCCCO5)ncc3Cl)ccc21` [Compound I-103]: it took 10 nM to reach half-maximal inhibition (IC50).

`CCOC(=O)CC1CCCN(c2ncc(Cl)c(Nc3ccc4c(c3)cc(OCC(=O)O)c(=O)n4C)n2)C1` (stereo not drawn) [Compound I-104]: inhibition was half-maximal at 10 nM (IC50).

Turning to `Cn1c(=O)c(OCC(=O)O)cc2cc(Nc3nc(N4CCCN(c5ccccc5)CC4)ncc3Cl)ccc21` [Compound I-105], the IC50 is 114 nM.

Turning to `Cn1c(=O)c(OCC(=O)O)cc2cc(Nc3nc(N4CCc5ccccc5CC4)ncc3Cl)ccc21` [Compound I-106], half-maximal inhibition (IC50) was put at 210 nM.

The compound `CCNC(=O)C1CCCN(c2ncc(Cl)c(Nc3ccc4c(c3)cc(OCC(=O)O)c(=O)n4C)n2)C1` (stereo not drawn) [Compound I-107] registered an IC50 of 10 nM.

In the case of `Cn1c(=O)c(OCC(=O)O)cc2cc(Nc3nc(N4C[C@H]5C[C@@H](C4)c4ccccc45)ncc3Cl)ccc21` [Compound I-108], the IC50 was determined as 38 nM. This IC50 is about 3.8-fold higher than that of the compound before.

In turn, `Cn1c(=O)c(OCC(=O)O)cc2cc(Nc3nc(N4CCC(c5ccccc5)CC4)ncc3Cl)ccc21` [Compound I-109] displayed an IC50 of 21 nM.

In turn, `COCCN1CCN(c2ncc(Cl)c(Nc3ccc4c(c3)cc(OCC(=O)O)c(=O)n4C)n2)CC1C` (stereo not drawn) [Compound I-110] showed an IC50 of 17 nM.

In turn, `Cn1c(=O)c(OCC(=O)O)cc2cc(Nc3nc(N4CCC5(CCCCC5)CC4)ncc3Cl)ccc21` [Compound I-111] returned an IC50 of 108 nM.

With `CCOC1CCCN(c2ncc(Cl)c(Nc3ccc4c(c3)cc(OCC(=O)O)c(=O)n4C)n2)C1` (stereo not drawn) [Compound I-112], inhibition was half-maximal at 7 nM (IC50).

For `C#CC1CCN(c2ncc(Cl)c(Nc3ccc4c(c3)cc(OCC(=O)O)c(=O)n4C)n2)CC1` [Compound I-113], the IC50 amounted to 7 nM.

As to `CC1CN(c2ncc(Cl)c(Nc3ccc4c(c3)cc(OCC(=O)O)c(=O)n4C)n2)CCS1` (stereo not drawn) [Compound I-114], the IC50 worked out at 9 nM.

For the compound `Cn1cnc2c1CCN(c1ncc(Cl)c(Nc3ccc4c(c3)cc(OCC(=O)O)c(=O)n4C)n1)C2` [Compound I-115], the midpoint of inhibition, the IC50, lay at 9 nM.

`Cn1c(=O)c(OCC(=O)O)cc2cc(Nc3nc(N4CCc5[nH]nnc5C4)ncc3Cl)ccc21` [Compound I-116] returned an IC50 of 10 nM.

`C[C@H]1CN(c2ncc(Cl)c(Nc3ccc4c(c3)cc(OCC(=O)O)c(=O)n4C)n2)CCO1` [Compound I-117]: the IC50 is 11 nM.

Consider `Cn1c(=O)c(OCC(=O)O)cc2cc(Nc3nc(N4CCCC(F)(F)CC4)ncc3Cl)ccc21` [Compound I-118], for which inhibition was half-maximal at 16 nM (IC50). This IC50 and that of the compound before are within 1.5-fold of each other.

`CC1CCCN(c2ncc(Cl)c(Nc3ccc4c(c3)cc(OCC(=O)O)c(=O)n4C)n2)C1` (stereo not drawn) [Compound I-119] had an IC50 of 13 nM.

The compound `Cn1c(=O)c(OCC(=O)O)cc2cc(Nc3nc(N4CCC(N5CCOCC5)C4)ncc3Cl)ccc21` (stereo not drawn) [Compound I-120] gave a 50% inhibitory concentration (IC50) of 11 nM.

The compound `CC1CCN(c2ncc(Cl)c(Nc3ccc4c(c3)cc(OCC(=O)O)c(=O)n4C)n2)CC1` [Compound I-121] showed an IC50 of 10 nM. The IC50 values of the last two compounds are within 1.5-fold of each other.

On to `CCC1CN(c2ncc(Cl)c(Nc3ccc4c(c3)cc(OCC(=O)NC)c(=O)n4C)n2)CCN1CC(F)F` (stereo not drawn) [Compound I-122], for which the IC50 was 6 nM.
